The record followed here is ChEMBL document CHEMBL4321813, “Discovery of GSK3527497: A Candidate for the Inhibition of Transient Receptor Potential Vanilloid-4 (TRPV4)” (J Med Chem, 2019).

For data set [1], the target named is Transient receptor potential cation channel subfamily V member 4 (Homo sapiens, UniProt Q9HBA0). As to the kind of experiment: Antagonist activity at BacMam virus expressing human TRPV4 transduced in BHK/AC9 or HEK MSR2 cells assessed as inhibition of GSK634775-induced Ca2+ flux preincubated for 10 mins followed by agonist addition by Fluo-4 AM dye based FLIPR assay. Format: cell-based. (Calcium flux is commonly read through the fluorescence of an indicator in the cells.)

Data set [2] can be described thus: Lipophilicity, log D of the compound at pH 7.4 by chromatographic method. In kind it is physicochemical. The following applies: buffer.
Data set [3] can be described thus: Solubility of the compound in FaSSIF measured after 4 hrs. In kind it is physicochemical.
A short description of data set [4]: MRT in Sprague-Dawley rat at 1 mg/kg, iv administered as 30 mins infusion by HPLC-MS/MS analysis. Particulars: in vivo. In kind it is ADME, organism-based.
Data set [5] is described as follows: Clearance in Sprague-Dawley rat at 1 mg/kg, iv administered as 30 mins infusion by HPLC-MS/MS analysis. Format: ADME, organism-based. The following applies: in vivo.
Data set [6] in a line: Volume of distribution at steady state in Sprague-Dawley rat at 1 mg/kg, iv administered as 30 mins infusion or 1 to 2 mg/kg, po by HPLC-MS/MS analysis. Format: ADME, organism-based. The following applies: in vivo, read-out: Vdss.
The nature of data set [7]: Oral bioavailability in Sprague-Dawley rat at 1 to 2 mg/kg by HPLC-MS/MS analysis. Format: ADME, organism-based. The following applies: in vivo.
A short description of data set [8]: Protein binding in rat plasma assessed as unbound fraction. Format: ADME, cell-free.
Data set [9] is described as follows: Unbound clearance in Sprague-Dawley rat at 1 mg/kg, iv administered as 30 mins infusion by HPLC-MS/MS analysis. In kind it is ADME, organism-based. The following applies: in vivo, 0.5 h.
A short description of data set [10]: Unbound volume of distribution at steady state in Sprague-Dawley rat at 1 mg/kg, iv administered as 30 mins infusion or 1 to 2 mg/kg, po by HPLC-MS/MS analysis. Particulars: in vivo, 0.5 h. Format: ADME, organism-based.
The nature of data set [11]: Ratio of unbound clearance in Sprague-Dawley rat at 1 mg/kg, iv administered as 30 mins infusion to unbound clearance in dog. In kind it is ADME, organism-based. Particulars: in vivo, 0.5 h.
A short description of data set [12]: Mean residence time in dog. In kind it is ADME, Canis lupus familiaris. Particulars: in vivo.
Data set [13] is described as follows: Clearance in dog. In kind it is ADME, Canis lupus familiaris. Particulars: in vivo.
In data set [14] the target is Voltage-gated inwardly rectifying potassium channel KCNH2 (Homo sapiens, UniProt Q12809). The data set is described as follows: Inhibition of human ERG by electrophysiology.
The target in the next data set is Cytochrome P450 3A4 (Homo sapiens, UniProt P08684). As to the kind of experiment: Inhibition of CYP3A4 (unknown origin). Format: ADME.
Data set [15] is described as follows: Apparent permeability in dog MDCK cells. Format: ADME, cell-based, Canis lupus familiaris.
A short description of data set [16]: Dose normalized AUC in Sprague-Dawley rat at 100 mg/kg, po by HPLC-MS/MS analysis. Particulars: in vivo. Format: ADME, organism-based.
The nature of data set [17]: Oral bioavailability in Sprague-Dawley rat at 100 mg/kg by HPLC-MS/MS analysis. Format: ADME, organism-based. Particulars: in vivo.
Data set [18] in a line: Dose normalized AUC in Sprague-Dawley rat at 2 mg/kg, po by HPLC-MS/MS analysis. Format: ADME, organism-based. The following applies: in vivo.
Data set [19] is described as follows: Volume of distribution at steady state in dog. In kind it is ADME, Canis lupus familiaris. The following applies: in vivo, read-out: Vdss.
A short description of data set [20]: Oral bioavailability in dog. Format: ADME, organism-based, Canis lupus familiaris. The following applies: in vivo.
Data set [21] in a line: Protein binding in dog plasma assessed as unbound fraction. Format: ADME, cell-free, Canis lupus familiaris.
Data set [22] in a line: Unbound clearance in dog. Format: ADME, Canis lupus familiaris. Particulars: in vivo.
Data set [23] is described as follows: Unbound volume of distribution at steady state in dog. In kind it is ADME, Canis lupus familiaris. Particulars: in vivo.
Data set [24] in a line: Unbound AUC in human. Format: ADME.

SMILES strings stand for the structures. Converted amounts (≈) assume the structure as drawn.

Sequence of Transient receptor potential cation channel subfamily V member 4 (Q9HBA0 whole entry): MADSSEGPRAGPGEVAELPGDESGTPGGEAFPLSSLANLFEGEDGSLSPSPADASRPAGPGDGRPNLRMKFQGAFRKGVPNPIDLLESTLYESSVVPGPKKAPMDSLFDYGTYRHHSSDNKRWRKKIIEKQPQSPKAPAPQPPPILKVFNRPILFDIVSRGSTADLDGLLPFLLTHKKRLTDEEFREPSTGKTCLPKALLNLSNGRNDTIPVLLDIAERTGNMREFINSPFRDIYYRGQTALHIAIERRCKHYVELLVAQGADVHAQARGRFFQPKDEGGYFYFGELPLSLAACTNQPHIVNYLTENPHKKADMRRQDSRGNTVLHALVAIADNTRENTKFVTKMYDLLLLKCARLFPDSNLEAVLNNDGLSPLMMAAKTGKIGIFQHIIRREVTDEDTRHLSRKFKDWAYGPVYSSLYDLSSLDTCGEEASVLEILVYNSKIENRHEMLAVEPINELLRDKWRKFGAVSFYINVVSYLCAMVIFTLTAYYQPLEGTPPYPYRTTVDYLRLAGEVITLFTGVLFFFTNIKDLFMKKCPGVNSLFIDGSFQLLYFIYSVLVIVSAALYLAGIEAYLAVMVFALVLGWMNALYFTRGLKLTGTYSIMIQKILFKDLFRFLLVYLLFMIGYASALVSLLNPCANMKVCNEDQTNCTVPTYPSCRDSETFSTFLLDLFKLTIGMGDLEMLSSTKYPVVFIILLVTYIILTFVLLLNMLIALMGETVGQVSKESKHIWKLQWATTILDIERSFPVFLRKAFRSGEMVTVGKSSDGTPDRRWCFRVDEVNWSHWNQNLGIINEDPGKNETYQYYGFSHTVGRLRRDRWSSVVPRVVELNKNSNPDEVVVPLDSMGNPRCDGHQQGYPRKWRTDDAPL
Sequence of Cytochrome P450 3A4 (P08684 whole entry): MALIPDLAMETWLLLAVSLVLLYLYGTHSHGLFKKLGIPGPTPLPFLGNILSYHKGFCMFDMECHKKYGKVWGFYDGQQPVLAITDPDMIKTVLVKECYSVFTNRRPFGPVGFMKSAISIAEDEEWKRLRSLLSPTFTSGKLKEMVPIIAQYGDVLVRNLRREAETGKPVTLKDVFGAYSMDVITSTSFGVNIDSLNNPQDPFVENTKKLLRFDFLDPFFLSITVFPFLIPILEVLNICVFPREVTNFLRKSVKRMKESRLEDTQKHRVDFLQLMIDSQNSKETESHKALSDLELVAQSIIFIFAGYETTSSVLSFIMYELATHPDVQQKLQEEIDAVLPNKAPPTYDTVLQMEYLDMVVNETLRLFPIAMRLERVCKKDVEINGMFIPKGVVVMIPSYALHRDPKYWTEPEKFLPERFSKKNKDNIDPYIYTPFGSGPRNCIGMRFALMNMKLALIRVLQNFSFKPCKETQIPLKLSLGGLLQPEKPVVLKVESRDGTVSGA
Sequence of Voltage-gated inwardly rectifying potassium channel KCNH2 (Q12809 whole entry): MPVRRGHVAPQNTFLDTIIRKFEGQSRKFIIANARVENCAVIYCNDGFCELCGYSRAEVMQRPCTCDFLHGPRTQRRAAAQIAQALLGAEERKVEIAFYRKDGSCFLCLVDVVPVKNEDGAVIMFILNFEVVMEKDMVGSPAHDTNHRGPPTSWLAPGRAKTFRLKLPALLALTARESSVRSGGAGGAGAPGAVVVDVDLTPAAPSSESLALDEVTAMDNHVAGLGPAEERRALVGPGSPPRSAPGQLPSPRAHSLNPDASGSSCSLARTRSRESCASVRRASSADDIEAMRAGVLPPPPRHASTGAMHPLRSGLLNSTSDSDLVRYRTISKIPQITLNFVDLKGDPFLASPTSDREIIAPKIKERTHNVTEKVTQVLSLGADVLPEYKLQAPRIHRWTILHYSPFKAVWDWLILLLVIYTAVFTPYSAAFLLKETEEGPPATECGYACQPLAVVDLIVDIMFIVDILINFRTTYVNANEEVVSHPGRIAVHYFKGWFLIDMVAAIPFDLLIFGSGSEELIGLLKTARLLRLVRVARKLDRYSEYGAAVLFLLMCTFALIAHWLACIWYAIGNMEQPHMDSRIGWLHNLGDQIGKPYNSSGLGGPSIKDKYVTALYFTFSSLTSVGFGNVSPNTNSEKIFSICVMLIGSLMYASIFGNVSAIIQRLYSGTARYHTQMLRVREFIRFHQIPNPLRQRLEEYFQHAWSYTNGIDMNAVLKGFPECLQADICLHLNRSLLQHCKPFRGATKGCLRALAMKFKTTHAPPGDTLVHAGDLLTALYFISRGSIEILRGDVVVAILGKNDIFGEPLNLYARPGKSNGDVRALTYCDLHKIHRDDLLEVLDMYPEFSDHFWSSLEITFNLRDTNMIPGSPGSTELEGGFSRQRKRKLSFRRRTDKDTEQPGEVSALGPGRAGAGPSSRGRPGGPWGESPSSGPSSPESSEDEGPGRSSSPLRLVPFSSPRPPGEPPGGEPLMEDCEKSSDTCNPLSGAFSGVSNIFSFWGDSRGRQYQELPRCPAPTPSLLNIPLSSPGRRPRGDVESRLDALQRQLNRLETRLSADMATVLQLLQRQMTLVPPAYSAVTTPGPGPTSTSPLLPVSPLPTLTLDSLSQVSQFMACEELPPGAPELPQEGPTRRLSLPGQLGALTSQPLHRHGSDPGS

Take `N#Cc1ccc(O[C@H]2CN(S(=O)(=O)c3ccc(C(F)(F)F)nc3)C[C@@]2(O)CO)cc1F`: the IC50 (in general, the point on the concentration scale where inhibition reaches its midpoint) in data set [1] is 175 nM. The chromatographic logD – broadly, a lipophilicity value derived from retention on a column – in data set [2] worked out at 4.2. Moreover, in data set [3], the solubility (usually the concentration that dissolves in the medium under given conditions) at 4 h amounted to 98 µg/mL (≈ 212 µM). The MRT – broadly, the average time that molecules of a dose stay in the body – in data set [4] came to 2.3 h. Moreover, the clearance (commonly the volume of plasma or blood freed of the substance per unit of time) in data set [5] was 31 mL/min/kg. The Vd in [6] was determined as 4.1 L/kg. The bioavailability (usually the share of a dose that reaches the circulation, judged against a reference dose that is usually intravenous) in data set [7] came out at 100%. Also, in [8], the fraction unbound (as a rule, the share of the substance not bound to proteins or other matrix) stood at 0.147. The same molecule displayed a CL free in data set [9] of 210 mL/min/kg. The same molecule showed a Vduss in data set [10] of 28 L/kg. Moreover, in data set [11], the Ratio is recorded as 13.
For `N#Cc1ccc(S(=O)(=O)[C@H]2CN(S(=O)(=O)c3ccc(Cl)cn3)C[C@@]2(O)CO)cc1`, the IC50 in data set [1] came out at 3800 nM. Further, the chromatographic logD in [2] was determined as 3.1. Also, the solubility at 4 h in data set [3] was more than 1000 µg/mL.
Take `N#Cc1ccc(O[C@H]2CN(S(=O)(=O)c3ccc(Cl)cc3)C[C@@]2(O)CO)cc1F`: in [1], the IC50 came to 53 nM. Also, the chromatographic logD in data set [2] stood at 4.1. The solubility at 4 h in data set [3] amounted to 44 µg/mL (≈ 103 µM). Besides, the MRT in [4] is 1.9 h. Further, in [5], the clearance turned out to be 54 mL/min/kg. For the same molecule, the Vd in data set [6] was determined as 6 L/kg. Further, the bioavailability in data set [7] worked out at 83%. In addition, the free fraction (fraction unbound) in [8] stood at 0.035. Also, the CL free in data set [9] stood at 1540 mL/min/kg. The same molecule yielded a Vduss in [10] of 170 L/kg.
For `N#Cc1ccc(S(=O)(=O)[C@H]2CN(S(=O)(=O)c3ccc(Cl)cc3Cl)C[C@@]2(O)CO)cc1`, the IC50 in [1] worked out at 8 nM. Moreover, the chromatographic logD in data set [2] came out at 4.5. The molecule further yielded a solubility at 4 h in data set [3] of 270 µg/mL (≈ 549 µM). The bioavailability in data set [7] came to 100%. The fraction unbound in data set [8] was found to be 0.027. The CL free in data set [9] is 925 mL/min/kg. In [10], this molecule yielded a Vduss of 85 L/kg.
In the case of `N#Cc1ccc(O[C@H]2CN(S(=O)(=O)c3ccc(Cl)cn3)C[C@@]2(O)CN)cc1F`, the MRT in [12] was determined as 17 h; in data set [4] it was 2.5 h. For the same molecule, the values for the clearance in data set [13] and in data set [5] were 5.9 mL/min/kg and 45 mL/min/kg, respectively. The IC50 in data set [1] stood at 12 nM; in [14] it was 20000 nM; against Cytochrome P450 3A4, 12000 nM. In data set [2], this molecule gave a chromatographic logD of 2.5. The same molecule showed a solubility at 4 h in data set [3] of more than 1000 µg/mL. Besides, the figures for the Vd in [6] and in [19] were 6.7 L/kg and 5.9 L/kg, respectively. For the same molecule, the bioavailability in data set [7] is 26%; in data set [17], 87%; in data set [20] it was 84%. The fraction unbound worked out at 0.14 in data set [8] and 0.32 in data set [21]. The CL free amounted to 320 mL/min/kg in [9] and 18 mL/min/kg in [22]. In addition, the figures for the Vduss in data set [10] and in [23] were 47 L/kg and 18 L/kg, respectively. The Papp (as a rule, the rate of passage across a membrane or cell layer, normalised by area and donor concentration) in data set [15] was 0.08 ×10⁻⁶ cm/s. The AUC/dose in data set [16] is 0.31 kg·h/L; in data set [18] it was 0.092 kg·h/L. The Ratio in data set [11] was 18.
In the case of `N#Cc1ccc(O[C@H]2CN(S(=O)(=O)c3ccc(Cl)cc3Cl)C[C@@]2(O)CN)cc1F` (racemic), the IC50 in data set [1] came to 3.5 nM; at Cytochrome P450 3A4 it was 1600 nM. Besides, the chromatographic logD in data set [2] amounted to 4. In data set [3], the solubility at 4 h came to 78 µg/mL (≈ 169 µM). Also, the MRT in [4] is 3.2 h. The same molecule showed a clearance in [5] of 40 mL/min/kg. The Vd in data set [6] came out at 7.7 L/kg. The molecule further came in with a bioavailability in [7] of 24%. Moreover, in data set [8], the fraction unbound is 0.036. The CL free in data set [9] was determined as 1100 mL/min/kg. Besides, the Vduss in [10] was determined as 210 L/kg. This molecule also had a fAUC in data set [24] of 170 ng·h/mL.
Take `N#Cc1ccc(O[C@H]2CN(S(=O)(=O)c3ccc(Cl)cc3Cl)CC2(O)CO)cc1F` (single isomer, unassigned): in [1], the IC50 turned out to be 33 nM. Moreover, the chromatographic logD in data set [2] turned out to be 4.9. Moreover, in data set [3], the concentration in solution (solubility at 4 h) was 88 µg/mL (≈ 191 µM). This molecule yielded a mean residence time MRT in data set [4] of 4.8 h. For the same molecule, in data set [5], the clearance was 54 mL/min/kg. The Vd in data set [6] is 13 L/kg. In data set [7], this molecule showed a bioavailability of 100%. The fraction unbound in [8] stood at 0.04. Besides, in data set [9], the CL free is 1350 mL/min/kg. The Vduss in data set [10] is 330 L/kg.
